We go through 26 compounds from ChEMBL document CHEMBL5584246, “Novel dihydropyrimidines as promising EGFR & HER2 inhibitors: Insights from experimental and computational studies” (Eur J Med Chem, 2024).

Test system in one series: not listed separately
Kind of series: Cytotoxicity against African green monkey Vero cells assessed as inhibition of cell growth measured after 3 days by MTT assay. In kind it is toxicity, cell-based. The settings on record: African green monkey (Chlorocebus sabaeus).
As usually defined, the IC50 is the concentration that inhibits the measured activity by half. In the case of `COc1ccc(NC(=O)C2=C(C)NC(=O)NC2c2c[nH]c3ccccc23)c(OC)c1` (configuration not stated), the concentration for half-maximal inhibition (IC50) at 3 days was 42.6 µM.

Regarding `COc1ccc(NC(=O)C2=C(C)NC(=S)NC2c2ccc(O)cc2)c(OC)c1` (configuration not stated), the IC50 at 3 days worked out at 40 µM.

With `COc1ccc(NC(=O)C2=C(C)NC(=O)NC2c2cccc(O)c2)c(OC)c1` (configuration not stated), the half-inhibitory concentration (IC50) at 3 days was found to be 55.7 µM.

In the case of `COc1ccc(NC(=O)C2=C(C)NC(=S)NC2c2ccc(N(C)C)cc2)c(OC)c1` (configuration not stated), the half-maximal inhibitory concentration (IC50) at 3 days is 53.1 µM.

In the case of `COc1ccc(NC(=O)C2=C(C)NC(=O)NC2c2ccc(O)cc2)c(OC)c1` (configuration not stated), the IC50 at 3 days was 55.2 µM.

With `COc1ccc(NC(=O)C2=C(C)NC(=S)NC2c2c[nH]c3ccccc23)c(OC)c1` (configuration not stated), the IC50 at 3 days turned out to be 50.3 µM.

On to `COc1ccc(NC(=O)C2=C(C)NC(=S)NC2c2cccc(O)c2)c(OC)c1` (configuration not stated), for which the half-maximal inhibitory concentration (IC50) at 3 days was 69.2 µM.

Regarding `COc1ccc(C2NC(=S)NC(C)=C2C(=O)Nc2ccc(OC)cc2OC)cc1` (configuration not stated), the IC50 at 3 days was 32.8 µM.

On to `COc1ccc(NC(=O)C2=C(C)NC(=O)NC2c2ccc(C)cc2)c(OC)c1` (configuration not stated), for which the half-inhibitory concentration (IC50) at 3 days was found to be 60 µM.

In the case of `CCOc1cc(C2NC(=S)NC(C)=C2C(=O)Nc2ccc(OC)cc2OC)ccc1O` (configuration not stated), the half-inhibitory concentration (IC50) at 3 days was 57.4 µM.

Consider `COc1ccc(NC(=O)C2=C(C)NC(=S)NC2c2ccc(C)cc2)c(OC)c1` (configuration not stated), for which the IC50 at 3 days worked out at 53.6 µM.

Turning to `COc1ccc(NC(=O)C2=C(C)NC(=O)NC2c2cccc(Cl)c2)c(OC)c1` (configuration not stated), the IC50 at 3 days turned out to be 73.4 µM.

In the case of `COc1ccc(NC(=O)C2=C(C)NC(=O)NC2c2ccc(N(C)C)cc2)c(OC)c1` (configuration not stated), the 50% inhibitory concentration (IC50) at 3 days worked out at 53.1 µM.

In the case of `COc1ccc(NC(=O)C2=C(C)NC(=S)NC2c2ccc(O)c(OC)c2)c(OC)c1` (configuration not stated), the IC50 at 3 days was determined as 42.5 µM.

Turning to `COc1ccc(C2NC(=O)NC(C)=C2C(=O)Nc2ccc(OC)cc2OC)cc1` (configuration not stated), the half-inhibitory concentration (IC50) at 3 days is 56.2 µM.

`COc1ccc(NC(=O)C2=C(C)NC(=O)NC2/C=C\c2ccccc2)c(OC)c1` (configuration not stated): the 50% inhibitory concentration (IC50) at 3 days is 30.4 µM.

Regarding `COc1ccc(NC(=O)C2=C(C)NC(=O)NC2c2ccccc2O)c(OC)c1` (configuration not stated), the IC50 at 3 days is 45.3 µM.

Consider `COc1ccc(NC(=O)C2=C(C)NC(=O)NC2c2ccc(O)c(OC)c2)c(OC)c1` (configuration not stated), for which the IC50 at 3 days turned out to be 42.9 µM.

With `COc1ccc(NC(=O)C2=C(C)NC(=O)NC2c2ccc(Br)cc2)c(OC)c1` (configuration not stated), the IC50 at 3 days came out at 49.4 µM.

With `COc1ccc(NC(=O)C2=C(C)NC(=O)NC2c2cccc(Br)c2)c(OC)c1` (configuration not stated), the IC50 at 3 days is 48.1 µM.

As for `CCOc1cc(C2NC(=O)NC(C)=C2C(=O)Nc2ccc(OC)cc2OC)ccc1O` (configuration not stated), the IC50 at 3 days came to 58.2 µM.

Turning to `COc1ccc(NC(=O)C2=C(C)NC(=O)NC2c2ccc(Cl)cc2)c(OC)c1` (configuration not stated), the IC50 at 3 days was determined as 62.7 µM.

In the case of `COc1ccc(NC(=O)C2=C(C)NC(=O)NC2c2ccccc2[N+](=O)[O-])c(OC)c1` (configuration not stated), the half-maximal inhibitory concentration (IC50) at 3 days was determined as 55.3 µM.

On to `COc1ccc(NC(=O)C2=C(C)NC(=O)NC2c2ccco2)c(OC)c1` (configuration not stated), for which the IC50 at 3 days is 62.4 µM.

Turning to `COc1ccc(NC(=O)C2=C(C)NC(=S)NC2c2ccc(Cl)cc2)c(OC)c1` (configuration not stated), the IC50 at 3 days was 48.3 µM.

Consider `COc1ccc(NC(=O)C2=C(C)NC(=O)NC2c2ccccc2)c(OC)c1` (configuration not stated), for which the IC50 at 3 days turned out to be 60.4 µM.

Another series relates to MCF7. The series can be described thus: Cytotoxicity against human MCF7 cells assessed as inhibition of cell growth measured after 3 days by MTT assay. Type of series: functional, cell-based. The settings on record: MCF7, 72 h. (In general: Formazan colour is commonly taken as a measure of viable cells.)
As for `COc1ccc(NC(=O)C2=C(C)NC(=O)NC2c2c[nH]c3ccccc23)c(OC)c1` (configuration not stated), the 50% inhibitory concentration (IC50) came to 20.2 µM.

As to `COc1ccc(NC(=O)C2=C(C)NC(=S)NC2c2ccc(O)cc2)c(OC)c1` (configuration not stated), the IC50 stood at 28.6 µM.

As to `COc1ccc(NC(=O)C2=C(C)NC(=O)NC2c2cccc(O)c2)c(OC)c1` (configuration not stated), the IC50 worked out at 30.4 µM.

On to `COc1ccc(NC(=O)C2=C(C)NC(=S)NC2c2ccc(N(C)C)cc2)c(OC)c1` (configuration not stated), for which the concentration for half-maximal inhibition (IC50) stood at 25.1 µM.

`COc1ccc(NC(=O)C2=C(C)NC(=O)NC2c2ccc(O)cc2)c(OC)c1` (configuration not stated): the IC50 came to 29.3 µM.

Turning to `COc1ccc(NC(=O)C2=C(C)NC(=S)NC2c2c[nH]c3ccccc23)c(OC)c1` (configuration not stated), the IC50 was determined as 29.4 µM.

Consider `COc1ccc(NC(=O)C2=C(C)NC(=S)NC2c2cccc(O)c2)c(OC)c1` (configuration not stated), for which the IC50 came out at 34.8 µM.

`COc1ccc(C2NC(=S)NC(C)=C2C(=O)Nc2ccc(OC)cc2OC)cc1` (configuration not stated): the IC50 is 28.1 µM.

In the case of `COc1ccc(NC(=O)C2=C(C)NC(=O)NC2c2ccc(C)cc2)c(OC)c1` (configuration not stated), the IC50 is 33.5 µM.

As for `CCOc1cc(C2NC(=S)NC(C)=C2C(=O)Nc2ccc(OC)cc2OC)ccc1O` (configuration not stated), the IC50 amounted to 25.3 µM.

For the compound `COc1ccc(NC(=O)C2=C(C)NC(=S)NC2c2ccc(C)cc2)c(OC)c1` (configuration not stated), the IC50 was found to be 38.2 µM.

As to `COc1ccc(NC(=O)C2=C(C)NC(=O)NC2c2cccc(Cl)c2)c(OC)c1` (configuration not stated), the IC50 amounted to 38.2 µM.

For `COc1ccc(NC(=O)C2=C(C)NC(=O)NC2c2ccc(N(C)C)cc2)c(OC)c1` (configuration not stated), the IC50 stood at 19.5 µM.

Take `COc1ccc(NC(=O)C2=C(C)NC(=S)NC2c2ccc(O)c(OC)c2)c(OC)c1` (configuration not stated): the IC50 came out at 20.3 µM.

With `COc1ccc(C2NC(=O)NC(C)=C2C(=O)Nc2ccc(OC)cc2OC)cc1` (configuration not stated), the IC50 stood at 24.3 µM.

In the case of `COc1ccc(NC(=O)C2=C(C)NC(=O)NC2/C=C\c2ccccc2)c(OC)c1` (configuration not stated), the half-maximal inhibitory concentration (IC50) stood at 19.3 µM.

For the compound `COc1ccc(NC(=O)C2=C(C)NC(=O)NC2c2ccccc2O)c(OC)c1` (configuration not stated), the IC50 was 30.1 µM.

On to `COc1ccc(NC(=O)C2=C(C)NC(=O)NC2c2ccc(O)c(OC)c2)c(OC)c1` (configuration not stated), for which the IC50 was 16.1 µM.

With `COc1ccc(NC(=O)C2=C(C)NC(=O)NC2c2ccc(Br)cc2)c(OC)c1` (configuration not stated), the half-inhibitory concentration (IC50) amounted to 31.6 µM.

In the case of `COc1ccc(NC(=O)C2=C(C)NC(=O)NC2c2cccc(Br)c2)c(OC)c1` (configuration not stated), the IC50 was 31.2 µM.

Regarding `CCOc1cc(C2NC(=O)NC(C)=C2C(=O)Nc2ccc(OC)cc2OC)ccc1O` (configuration not stated), the IC50 was found to be 21 µM.

Regarding `COc1ccc(NC(=O)C2=C(C)NC(=O)NC2c2ccc(Cl)cc2)c(OC)c1` (configuration not stated), the IC50 was determined as 32.4 µM.

Regarding `COc1ccc(NC(=O)C2=C(C)NC(=O)NC2c2ccccc2[N+](=O)[O-])c(OC)c1` (configuration not stated), the IC50 was 40.1 µM.

Turning to `COc1ccc(NC(=O)C2=C(C)NC(=O)NC2c2ccco2)c(OC)c1` (configuration not stated), the half-inhibitory concentration (IC50) is 27.4 µM.

Turning to `COc1ccc(NC(=O)C2=C(C)NC(=S)NC2c2ccc(Cl)cc2)c(OC)c1` (configuration not stated), the concentration for half-maximal inhibition (IC50) is 38.7 µM.

As to `COc1ccc(NC(=O)C2=C(C)NC(=O)NC2c2ccccc2)c(OC)c1` (configuration not stated), the IC50 is 38.2 µM.
